Source: patent US11858941B2, “Heterocyclic and heteroaryl compounds for treating Huntington's disease” (PTC THERAPEUTICS, INC., priority 2018, dated 2024)

Test system: Endogenous Huntingtin Protein
Test: Endogenous Huntingtin Protein Assay (Meso Scale Discovery ELISA-based electrochemiluminescence)
Format: cell-based
Settings: MSD plates coated with MW1 (expanded polyglutamine) or MAB2166 capture antibody; lysates
Method: Compounds of Formula (I) were tested using the Meso Scale Discovery (MSD) Assay provided in International Application No. PCT/US2016/066042, filed on Dec. 11, 2016 and claiming priority to United States Provisional Application U.S. 62/265,652 filed on Dec. 10, 2015, the entire contents of which are incorporated herein by reference.
The Endogenous Huntingtin Protein assay used in Example 1 was developed using the ELISA-based MSD electrochemiluminescence assay platform.
Endogenous Huntingtin Protein Assay
Meso Scale Discovery (MSD) 96-well or 384-well plates were coated overnight at 4° C. with MW1 (expanded polyglutamine) or MAB2166 monoclonal antibody (for capture) at a concentration of 1 μg/mL in PBS (30 μL per well). Plates were then washed three times with 300 μL wash buffer (0.05% Tween-20 in PBS) and blocked (100 μL blocking buffer; 5% BSA in PBS) for 4-5 hours at room temperature with rotational shaking and then washed three times with wash buffer.
Samples (25 μL) were transferred to the antibody-coated MSD plate and incubated overnight at 4° C. After removal of the lysates, the plate was washed three times with wash buffer, and 25 μL of #5656S (Cell signaling; rabbit monoclonal) secondary antibody (diluted to 0.25 μg/mL in 0.05% Tween-20 in blocking buffer) was added to each well and incubated with shaking for 1 Hour at room temperature. Following incubation with the secondary antibody, the wells were rinsed with wash buffer after which 25 μL of goat anti-rabbit SULFO TAG secondary detection antibody (required aspect of the MSD system) (diluted to 0.25 μg/mL in 0.05% Tween-20 in blocking buffer) was added to each well and incubated with shaking for 1 hour at room temperature. After rinsing three times with wash buffer, 150 μL of read buffer T with surfactant (MSD) were added to each empty well, and the plate was imaged on a SI 6000 imager (MSD) according to manufacturers' instructions provided for 96- or 384-well plates.

| IC50 [nM] | SMILES |
| --- | --- |
| ≤ 100 | CC1(C)CC(n2nnc3cc(-c4ccc(-c5ccncc5)cc4O)nnc32)CC(C)(C)N1 [Cpd 66, 5-(pyridin-4-yl)-2-[3-(2,2,6,6-tetramethylpiperidin-4-yl)-3H-[1,2,3]triazolo[4,5-c]pyridazin-6-yl]phenol] |
| ≤ 100 | CC1(C)CC(n2nnc3cc(-c4ccc(-c5ccc(O)cn5)cc4O)nnc32)CC(C)(C)N1 [Cpd 67, 6-{3-hydroxy-4-[3-(2,2,6,6-tetramethylpiperidin-4-yl)-3H-[1,2,3]triazolo[4,5-c]pyridazin-6-yl]phenyl}pyridin-3-ol] |
| ≤ 100 | CC1(C)CC(n2nnc3cc(-c4ccc(-c5ncc(O)cn5)cc4O)nnc32)CC(C)(C)N1 [Cpd 68, 2-{3-hydroxy-4-[3-(2,2,6,6-tetramethylpiperidin-4-yl)-3H-[1,2,3]triazolo[4,5-c]pyridazin-6-yl]phenyl}pyrimidin-5-ol] |
| ≤ 100 | [2H]C([2H])([2H])n1cc(-c2ccc(-c3cc4nnn(C5CC(C)(C)NC(C)(C)C5)c4nn3)c(O)c2)cn1 [Cpd 69, 5-[1-(^2H3)methyl-1H-pyrazol-4-yl]-2-[3-(2,2,6,6-tetramethylpiperidin-4-yl)-3H-[1,2,3]triazolo[4,5-c]pyridazin-6-yl]phenol] |
| ≤ 100 | CC1(C)CC(n2nnc3cc(-c4ccc(-n5ccnc5)cc4O)nnc32)CC(C)(C)N1 [Cpd 70, 5-(1H-imidazol-1-yl)-2-[3-(2,2,6,6-tetramethylpiperidin-4-yl)-3H-[1,2,3]triazolo[4,5-c]pyridazin-6-yl]phenol] |
| 100 to 500 | CC1(C)CC(n2nnc3cc(-c4ccc(-c5cnn(C(F)F)c5)cc4O)nnc32)CC(C)(C)N1 [Cpd 71, 5-[1-(difluoromethyl)-1H-pyrazol-4-yl]-2-[3-(2,2,6,6-tetramethylpiperidin-4-yl)-3H-[1,2,3]triazolo[4,5-c]pyridazin-6-yl]phenol] |
| 100 to 500 | CC1(C)CC(n2nnc3cc(-c4ccc(-n5ccnn5)cc4O)nnc32)CC(C)(C)N1 [Cpd 72, 2-[3-(2,2,6,6-tetramethylpiperidin-4-yl)-3H-[1,2,3]triazolo[4,5-c]pyridazin-6-yl]-5-(1H-1,2,3-triazol-1-yl)phenol] |
| ≤ 100 | Cc1cc(-c2ccc(-c3cc4nnn(C5CC(C)(C)NC(C)(C)C5)c4nn3)c(O)c2)ccn1 [Cpd 73, 5-(2-methylpyridin-4-yl)-2-[3-(2,2,6,6-tetramethylpiperidin-4-yl)-3H-[1,2,3]triazolo[4,5-c]pyridazin-6-yl]phenol] |
| 100 to 500 | CC1(C)CC(n2nnc3cc(-c4ccc(-c5ccnc(C(F)(F)F)c5)cc4O)nnc32)CC(C)(C)N1 [Cpd 74, 2-[3-(2,2,6,6,-tetramethylpiperidin-4-yl)-3H-[1,2,3]triazolo[4,5-c]pyridazin-6-yl]-5-[2-(trifluoromethyl)pyridin-4-yl]phenol] |
| 100 to 500 | CC1(C)CC(n2nnc3cc(-c4ccc(-c5ccncn5)cc4O)nnc32)CC(C)(C)N1 [Cpd 75, 5-(pyrimidin-4-yl)-2-[3-(2,2,6,6-tetramethylpiperidin-4-yl)-3H-[1,2,3]triazolo[4,5-c]pyridazin-6-yl]phenol] |
| 100 to 500 | CC1(C)CC(n2nnc3cc(-c4ccc(-c5ccnnc5)cc4O)nnc32)CC(C)(C)N1 [Cpd 76, 5-(pyridazin-4-yl)-2-[3-(2,2,6,6-tetramethylpiperidin-4-yl)-3H-[1,2,3]triazolo[4,5-c]pyridazin-6-yl]phenol] |
| ≤ 100 | COc1cc(-c2ccc(-c3cc4nnn(C5CC(C)(C)NC(C)(C)C5)c4nn3)c(O)c2)ccn1 [Cpd 77, 5-(2-methoxypyridin-4-yl)-2-[3-(2,2,6,6-tetramethylpiperidin-4-yl)-3H-[1,2,3]triazolo[4,5-c]pyridazin-6-yl]phenol] |
| 1000 to 3000 | CC1(C)CC(n2nnc3cc(-c4ccc(-c5cncnc5)cc4O)nnc32)CC(C)(C)N1 [Cpd 78, 5-(pyrimidin-5-yl)-2-[3-(2,2,6,6-tetramethylpiperidin-4-yl)-3H-[1,2,3]triazolo[4,5-c]pyridazin-6-yl]phenol] |
| 500 to 1000 | CC1(C)CC(n2nnc3cc(-c4ccc(-c5ccc(O)nn5)cc4O)nnc32)CC(C)(C)N1 [Cpd 79, 6-{3-hydroxy-4-[3-(2,2,6,6-tetramethylpiperidin-4-yl)-3H-[1,2,3]triazolo[4,5-c]pyridazin-6-yl]phenyl}pyridazin-3-ol] |
| 100 to 500 | CC1(C)CC(n2nnc3cc(-c4ccc(-c5cc[nH]c5)cc4O)nnc32)CC(C)(C)N1 [Cpd 80, 5-(1H-pyrrol-3-yl)-2-[3-(2,2,6,6-tetramethylpiperidin-4-yl)-3H-[1,2,3]triazolo[4,5-c]pyridazin-6-yl]phenol] |
| 1000 to 3000 | CC1(C)CC(n2nnc3cc(-c4cc5cccnc5cc4O)nnc32)CC(C)(C)N1 [Cpd 81, 6-[3-(2,2,6,6-tetramethylpiperidin-4-yl)-3H-[1,2,3]triazolo[4,5-c]pyridazin-6-yl]quinolin-7-ol] |
| 100 to 500 | CC1(C)CC(n2nnc3cc(-c4cc5c(cc4O)/C(=N/O)CC5)nnc32)CC(C)(C)N1 [Cpd 82, (3E)-3-(hydroxyimino)-6-[3-(2,2,6,6-tetramethylpiperidin-4-yl)-3H-[1,2,3]triazolo[4,5-c]pyridazin-6-yl]-2,3-dihydro-1H-inden-5-ol] |
| ≤ 100 | CC1(C)CC(n2nnc3cc(-c4cc(Cl)c(-c5cn[nH]c5)cc4O)nnc32)CC(C)(C)N1 [Cpd 83, 4-chloro-5-(1H-pyrazol-4-yl)-2-[3-(2,2,6,6-tetramethylpiperidin-4-yl)-3H-[1,2,3]triazolo[4,5-c]pyridazin-6-yl]phenol] |
| 1000 to 3000 | CN(C)c1ccc(-c2ccc(-c3cc4nnn(C5CC(C)(C)NC(C)(C)C5)c4nn3)c(O)c2)cn1 [Cpd 84, 5-[6-(dimethylamino)pyridin-3-yl]-2-[3-(2,2,6,6-tetramethylpiperidin-4-yl)-3H-[1,2,3]triazolo[4,5-c]pyridazin-6-yl]phenol] |
| 1000 to 3000 | CC1(C)CC(n2nnc3cc(-c4ccc(-c5cnc6cnccn56)cc4O)nnc32)CC(C)(C)N1 [Cpd 85, 5-(imidazo[1,2-a]pyrazin-3-yl)-2-[3-(2,2,6,6-tetramethylpiperidin-4-yl)-3H-[1,2,3]triazolo[4,5-c]pyridazin-6-yl]phenol] |
| 1000 to 3000 | CC1(C)CC(n2nnc3cc(-c4ccc(-c5ccn(C6CC6)c(=O)c5)cc4O)nnc32)CC(C)(C)N1 [Cpd 86, 1-cyclopropyl-4-{3-hydroxy-4-[3-(2,2,6,6-tetramethylpiperidin-4-yl)-3H-[1,2,3]triazolo[4,5-c]pyridazin-6-yl]phenyl}pyridin-2(1H)-one] |
| 100 to 500 | CC1(C)CC(n2nnc3cc(-c4cc(F)c(-c5ccncc5)cc4O)nnc32)CC(C)(C)N1 [Cpd 87, 4-fluoro-5-(pyridin-4-yl)-2-[3-(2,2,6,6-tetramethylpiperidin-4-yl)-3H-[1,2,3]triazolo[4,5-c]pyridazin-6-yl]phenol] |
| 100 to 500 | CC1(C)CC(n2nnc3cc(-c4ccc(-c5ccn6cncc6c5)cc4O)nnc32)CC(C)(C)N1 [Cpd 88, 5-(imidazo[1,5-a]pyridin-7-yl)-2-[3-(2,2,6,6-tetramethylpiperidin-4-yl)-3H-[1,2,3]triazolo[4,5-c]pyridazin-6-yl]phenol] |
| 100 to 500 | CC1(C)CC(n2nnc3cc(-c4ccc(-c5ccsc5)cc4O)nnc32)CC(C)(C)N1 [Cpd 89, 2-[3-(2,2,6,6-tetramethylpiperidin-4-yl)-3H-[1,2,3]triazolo[4,5-c]pyridazin-6-yl]-5-(thiophen-3-yl)phenol] |
| 100 to 500 | CC1(C)CC(n2nnc3cc(-c4ccc(-c5ccn6ccnc6c5)cc4O)nnc32)CC(C)(C)N1 [Cpd 90, 5-(imidazo[1,2-a]pyridin-7-yl)-2-[3-(2,2,6,6-tetramethylpiperidin-4-yl)-3H-[1,2,3]triazolo[4,5-c]pyridazin-6-yl]phenol] |
| 1000 to 3000 | CC1(C)CC(n2nnc3cc(-c4ccc(-c5ncc[nH]5)cc4O)nnc32)CC(C)(C)N1 [Cpd 91, 5-(1H-imidazol-2-yl)-2-[3-(2,2,6,6-tetramethylpiperidin-4-yl)-3H-[1,2,3]triazolo[4,5-c]pyridazin-6-yl]phenol] |
| 1000 to 3000 | Cn1cnc2cc(-c3cc4nnn(C5CC(C)(C)NC(C)(C)C5)c4nn3)c(O)cc21 [Cpd 92, 1-methyl-5-[3-(2,2,6,6-tetramethylpiperidin-4-yl)-3H-[1,2,3]triazolo[4,5-c]pyridazin-6-yl]-1H-benzimidazol-6-ol] |
| ≤ 100 | CC1(C)CC(n2nnc3cc(-c4ccc(-c5cc[nH]c(=O)c5)cc4O)nnc32)CC(C)(C)N1 [Cpd 93, 4-{3-hydroxy-4-[3-(2,2,6,6-tetramethylpiperidin-4-yl)-3H-[1,2,3]triazolo[4,5-c]pyridazin-6-yl]phenyl}pyridin-2(1H)-one] |
| 500 to 1000 | CC1(C)CC(n2nnc3cc(-c4cc5cn[nH]c5cc4O)nnc32)CC(C)(C)N1 [Cpd 94, 5-[3-(2,2,6,6-tetramethylpiperidin-4-yl)-3H-[1,2,3]triazolo[4,5-c]pyridazin-6-yl]-1H-indazol-6-ol] |
